The structures appear in SMILES notation.

This experiment concerns the target T1, Human GPR120 short form (Homo sapiens, UniProt Q5NUL3).
T1 construct: expressed in transfected cells
T1 sequence (Q5NUL3 1-361): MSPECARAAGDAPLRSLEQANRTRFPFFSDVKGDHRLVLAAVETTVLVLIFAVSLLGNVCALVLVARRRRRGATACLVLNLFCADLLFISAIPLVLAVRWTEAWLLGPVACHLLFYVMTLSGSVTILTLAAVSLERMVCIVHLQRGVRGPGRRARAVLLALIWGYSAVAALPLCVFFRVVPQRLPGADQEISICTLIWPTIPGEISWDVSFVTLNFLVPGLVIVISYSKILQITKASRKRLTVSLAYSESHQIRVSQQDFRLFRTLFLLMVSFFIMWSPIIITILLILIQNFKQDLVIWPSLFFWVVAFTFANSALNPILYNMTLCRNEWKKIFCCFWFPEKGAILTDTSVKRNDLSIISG
The experiment in a line: Human GPR120 calcium flux assay (FLIPR), Procedure Calcium A. In kind it is cell-based. As to conditions: HEK-293 cells expressing human GPR120 short form, 2500 cells/well; read-out: GPR120 Ca2+ Assay A EC50. The text has this:
This in vitro assay serves to assess test compound agonist activity against the short splice variant (SVS with Accession number NM_001195755.1 confirmed by sequencing data) of the GPR120 receptor. The Human Short splice variant #2 (NM_001195755.1) is missing an in-frame coding exon compared to variant 1 (the Human Long splice variant NM_181745.3), resulting in a shorter isoform (GPR120-S) lacking a 16 aa protein segment compared to isoform GPR120-L. The assay platform utilizes HEK-293 cells stably transfected to express the Human GPR120 short form. These cells are first loaded with the Ca^+2 sensitive dye, Fluo-4 NW. Upon stimulation, intracellular released Ca^+2 can bind to the dye and alter its fluorescence intensity. This increase in fluorescence signal, and thus the flux in intracellular [Ca^2+], is detected and quantitated by fluorescence imaging using a FLIPR reader. The effect of the agonist is measured as a function of concentration and used to calculate an EC50 based upon a response curve.
In this procedure 2500 cells/well were employed.
A Human GPR120 clone (Genbank accession number NM_001195755.1) was placed into the pcDNA3.1 mammalian expression vector carrying the neomycin resistance gene. A stable mammalian cell was generated by placing the above clone into a HEK293 background. Clonal cells responding to long chain fatty acids had expression levels of GPR120 confirmed by RT-qPCR. Human HEK-GPR120 cells were cultured in Dulbecco's Modified Eagle's Medium (DMEM)/F12 medium supplemented with 10% fetal bovine serum (FBS), 1% L-Glutamine and 1% penicillin/streptomycin and 0.5 mg/ml G-418. Cells were split 2 times a week to keep the cells in the log-phase growth.
In preparation for the assay, HEK cells stably transfected with Human GPR120 (2.5K cells per well in 25 uL growth medium) were seeded into 384-well plates and then incubated overnight (37° C., 5% CO2). The next day, the media was changed to 20 μL assay buffer and the cell starved for 1 h at 37° C. The dye loading solution (2× dye) was prepared using 10 mL assay buffer, 100 μL of 250 mM probenecid, 1 bottle of Component A, and 20 μl of dye in DMSO. Twenty μL of the 2× dye loading buffer was then added to each well. The plates were incubated at 37° C. for 30 min, then at room temperature for an additional 15 minutes, before performing the assay on FLIPR. Test compounds were prepared in assay buffer (2 uL of cpd+198 uL assay buffer, final DMSO in assay plate is 0.2%) at the desired concentration, more particularly at 100, 50, 25, 12.5, 6.25, 3.125, 1.562, 0.781, 0.391, 0.195, 0.098, 0.049, 0.024 and 0.012 μM.
The assay was performed on a FLIPR plate reader using the following parameters. Baseline was read for 10 seconds at 1 sec intervals. The program was set to transfer 10 μL of ligand from compound plate to cell plate after baseline reading. Aspiration was executed at: 10 μL/sec speed, 4.6 μL height; Dispensing was executed at: 30 μL/sec speed, 45 μL height. After compound addition, each well was read for 300 sec, with measurements collected at 1 sec intervals.
The kinetic data from the FLIPR was based upon a 5 minute window for data collection. The fluorescence of each sample well was used for individual calculations of a normalized RFU value, which was defined as maximum response minus the minimum response. The normalized fluorescence reading (RFU) was calculated as follows: RFU=Fmax−Fmin The data were fitted to a sigmoidal dose-response curve with a variable Hill slope (<2) using nonlinear regression with GraphPad Prism 5.0 to calculate the EC50 values. The Fitting Equation was: Y=Bottom+(Top−Bottom)/(1+10^((Log EC50−X)*HillSlope)), where X is the log of the concentration and Y is the response.
For orientation: A change in cytosolic calcium serves as a functional read-out for many receptors and channels.
`Cc1c(CCC(=O)O)ccc(OCc2c(-c3ccc(Cl)cc3)csc2C(F)(F)F)c1C` [Cpd 57, 3-(4-((4-(4-chlorophenyl)-2-(trifluoromethyl)thiophen-3-yl)methoxy)-2,3-dimethylphenyl)propanoic acid]: the EC50 is 278 nM. For `COc1ccc(-c2snc(Cl)c2COc2ccc(CCC(=O)O)c(C)c2C)cc1` [Cpd 186, 3-(4-[[3-chloro-5-(4-methoxyphenyl)-1,2-thiazol-4-yl]methoxy]-2,3-dimethylphenyl)propanoic acid], the concentration giving a half-maximal response (EC50) stood at 303 nM. The value for `Cc1cc(OCc2c(-c3c(F)cc(Cl)cc3F)nsc2C(F)(F)F)c(F)cc1CCC(=O)O` [Cpd 207, 3-(4-((3-(4-chloro-2,6-difluorophenyl)-5-(trifluoromethyl)isothiazol-4-yl)methoxy)-5-fluoro-2-methylphenyl)propanoic acid] was 566 nM; that for `CCc1ccc(-c2nsc(OC)c2COc2ccc(CCC(=O)O)c(C)c2C)cc1` [Cpd 228, 3-(4-[[3-(4-ethylphenyl)-5-methoxy-1,2-thiazol-4-yl]methoxy]-2,3-dimethylphenyl)propanoic acid] was 923 nM.

`O=C(O)CCc1cc(F)c(OCc2c(C3CCOC3)nsc2C(F)(F)F)c(F)c1` (stereo not drawn) [Cpd 214, 3-(3,5-difluoro-4-((3-(tetrahydrofuran-3-yl)-5-(trifluoromethyl)isothiazol-4-yl)methoxy)phenyl)propanoic acid]: the concentration giving a half-maximal response (EC50) was 606 nM. The value for `COc1cc(-c2nsc(C(F)(F)F)c2COc2ccc(CCC(=O)O)c(C)c2C)ccc1Cl` [Cpd 144, 3-(4-((3-(4-chloro-3-methoxyphenyl)-5-(trifluoromethyl)isothiazol-4-yl)methoxy)-2,3-dimethylphenyl)propanoic acid] was 160 nM. Under `CCc1ccc(-c2cc(C(F)(F)F)sc2COc2ccc(CCC(=O)O)c(F)c2F)cc1` [Cpd 21, 3-(4-((3-(4-ethylphenyl)-5-(trifluoromethyl)thiophen-2-yl)methoxy)-2,3-difluorophenyl)propanoic acid] stands 788 nM. Under `Cc1c(CCC(=O)O)ccc(OCc2c(Cl)nsc2-c2ccc(C(F)(F)F)cc2)c1C` [Cpd 112, 3-[4-([3-chloro-5-[4-(trifluoromethyl)phenyl]-1,2-thiazol-4-yl]methoxy)-2,3-dimethylphenyl]propanoic acid] stands 99 nM.

In the case of `CCc1ccc(-c2csc(C(F)(F)F)c2COc2ccc(CCC(=O)O)c(C)c2C)cc1` [Cpd 54, 3-(4-((4-(4-ethylphenyl)-2-(trifluoromethyl)thiophen-3-yl)methoxy)-2,3-dimethylphenyl)propanoic acid], the 50% effective concentration (EC50) was 199 nM.

In the case of `Cc1ccc(-c2csc(C(F)(F)F)c2COc2c(F)cc(CCCO)cc2F)cn1` [Cpd 36, 3-(3,5-difluoro-4-((4-(6-methylpyridin-3-yl)-2-(trifluoromethyl)thiophen-3-yl)methoxy)phenyl)propan-1-61], the EC50 turned out to be 90 nM. Consider `CCc1ccc(-c2cc(C(F)(F)F)sc2COc2c(F)cc(CCC(=O)O)cc2F)cc1` [Cpd 22, 3-(4-((3-(4-ethylphenyl)-5-(trifluoromethyl)thiophen-2-yl)methoxy)-3,5-difluorophenyl)propanoic acid], for which the EC50 was 924 nM. The value for `Cc1c(CCC(=O)O)ccc(OCc2c(-c3ccc(Cl)cc3F)csc2C(F)(F)F)c1C` [Cpd 59, 3-(4-((4-(4-chloro-2-fluorophenyl)-2-(trifluoromethyl)thiophen-3-yl)methoxy)-2,3-dimethylphenyl)propanoic acid] was 348 nM; that for `Cc1ccc(-c2snc(C(F)(F)F)c2COc2ccc(CCC(=O)O)c(C(F)(F)F)c2)c(C)c1` [Cpd 232, 3-(4-[[5-(2,4-dimethylphenyl)-3-(trifluoromethyl)-1,2-thiazol-4-yl]methoxy]-2-(trifluoromethyl)phenyl)propanoic acid] was 1090 nM. The value for `Cc1ccc(-c2csc(C(F)(F)F)c2COc2c(F)cc(CCC(=O)O)cc2F)cn1` [Cpd 62, 3-(3,5-difluoro-4-((4-(6-methylpyridin-3-yl)-2-(trifluoromethyl)thiophen-3-yl)methoxy)phenyl)propanoic acid] was 747 nM; that for `CCc1ccc(-c2nsc(C(F)(F)C(F)(F)F)c2COc2ccc(CCC(=O)O)c(C)c2C)cc1` [Cpd 192, 3-(4-[[3-(4-ethylphenyl)-5-(pentafluoroethyl)-1,2-thiazol-4-yl]methoxy]-2,3-dimethylphenyl)propanoic acid] was 332 nM. The value for `CCc1ccc(-c2nsc(C(F)(F)F)c2COc2ccc(CCC(=O)O)c(F)c2C(F)(F)F)cc1` [Cpd 157, 3-(4-[[3-(4-ethylphenyl)-5-(trifluoromethyl)-1,2-thiazol-4-yl]methoxy]-2-fluoro-3-(trifluoromethyl)phenyl)propanoic acid] was 188 nM. On to `CC(=O)c1ccc(-c2nsc(C(F)(F)F)c2COc2c(F)cc(CCC(=O)O)cc2F)cc1` [Cpd 131, 3-(4-[[3-(4-acetylphenyl)-5-(trifluoromethyl)-1,2-thiazol-4-yl]methoxy]-3,5-difluorophenyl) propanoic acid], for which the EC50 worked out at 129 nM. Consider `O=C(O)CCc1cc(F)c(OCc2csnc2-c2ccc(Cl)s2)c(F)c1` [Cpd 202, 3-(4-((3-(5-chlorothiophen-2-yl)isothiazol-4-yl)methoxy)-3,5-difluorophenyl)propanoic acid], for which the EC50 stood at 468 nM. The value for `CCc1ccc(-c2nsc(C(F)(F)F)c2COc2c(F)cc(C3CC3C(=O)O)cc2F)cc1` (stereo not drawn) [Cpd 163, 2-(4-[[3-(4-ethylphenyl)-5-(trifluoromethyl)-1,2-thiazol-4-yl]methoxy]-3,5-difluorophenyl)cyclopropane-1-carboxylic acid] was 203 nM; that for `CCc1ccc(-c2nsc(C(F)(F)F)c2COc2ccc3c(c2)CCC3CC(=O)O)cc1` (stereo not drawn) [Cpd 176, 2-(5-[[3-(4-ethylphenyl)-5-(trifluoromethyl)-1,2-thiazol-4-yl]methoxy]-2,3-dihydro-1H-inden-1-yl)acetic acid] was 261 nM. Take `CCc1ccc(-c2nsc(C(F)(F)F)c2COc2ccc(CCC(=O)O)c3ccccc23)cc1` [Cpd 130, 3-(4-[[3-(4-ethylphenyl)-5-(trifluoromethyl)-1,2-thiazol-4-yl]methoxy]naphthalen-1-yl)propanoic acid]: the concentration for a half-maximal effect (EC50) is 125 nM. Turning to `CCc1ccc(-c2nsc(CC)c2COc2ccc(CCC(=O)O)c(C)c2C)cc1` [Cpd 217, 3-(4-[[5-ethyl-3-(4-ethylphenyl)-1,2-thiazol-4-yl]methoxy]-2,3-dimethylphenyl)propanoic acid], the EC50 is 677 nM. The value for `CCc1ccc(-c2nsc(C(F)(F)F)c2COc2ccc(CCC(=O)O)c3sccc23)cc1` [Cpd 92, 3-(4-[[3-(4-ethylphenyl)-5-(trifluoromethyl)-1,2-thiazol-4-yl]methoxy]-1-benzothiophen-7-yl)propanoic acid] was 70 nM; that for `CCc1ccc(-c2sc(C)c(C(F)(F)F)c2COc2ccc(CCC(=O)O)c(C)c2C)cc1` [Cpd 61, 3-(4-[[2-(4-ethylphenyl)-5-methyl-4-(trifluoromethyl)thiophen-3-yl]methoxy]-2,3-dimethylphenyl) propanoic acid] was 564 nM.

A word on the EC50: it is the concentration that produces a half-maximal response.
